In patent US20240139147A1, “METHOD FOR IMPROVING BIOAVAILABILITY OF NAD+ DERIVATIVES” (HOBOOMLIFE BIO-TECHNOLOGY (SHENZHEN) CO., LTD., priority 2022, published 2024):

Key:
Format in all cases: in vivo
Conditions in all cases: SD rats, intragastric; for NAD+ level in blood: 100 mg/kg NMN and/or 10 mg/kg quercetin
NAD+ [1] = assay: Increasing the level of NAD+ by controlled-release NMN microspheres 1-3, blood NAD+ by HPLC (Example 3)
Description: (§1) 28 SD rats weighing about 200 g were purchased, and an experiment was carried out after one week of adaptive feeding. The 28 rats were divided into 7 groups, 4 rats per group (half male and half female). The rats in group 1 were not treated, the rats in group 2 were administered intragastrically with 100 mg/kg of NMN, the rats in group 3 were administered intragastrically with 10 mg/kg of quercetin, the rats in group 4 were administered intragastrically with 100 mg/kg of NMN and 10 mg/kg of quercetin at the same time, the rats in group 5 were administered intragastrically with the controlled-release microspheres 1 containing 100 mg/kg of NMN and 10 mg/kg of quercetin, the rats in group 6 were administered intragastrically with the controlled-release NMN microspheres 2 containing 100 mg/kg of NMN and 10 mg/kg of quercetin, and the rats in group 7 were administered intragastrically with the controlled-release NMN microspheres 3 containing 100 mg/kg of NMN and 10 mg/kg of quercetin.
Blood was collected from the rat in each groups via the tail vein at time points of 2 h, 2.5 h, 3 h, 3.5 h, 4 h, 4.5 h, 5 h, 5.5 h, and 6 h, respectively, after intragastric administration of corresponding microspheres, and 0.1 mL of blood was collected each time by each rat. After the vein blood collected from the rat in each groups at each time point was treated, the NAD+ level in the blood sample was tested by high performance liquid chromatography (HPLC). The test results of 4 rats in each group were averaged. […] Different parameters are set in the preparation processes of the controlled-release NMN microsphere 1, the controlled-release NMN microsphere 2, and the controlled-release NMN microsphere 3, so the time intervals between release peaks of quercetin and release peaks of NMN in the microspheres are different. A time difference between a peak of the releasing of quercetin and a peak of the releasing of NMN in the controlled-release NMN microsphere 1 is 1 h-2 h, a time difference between a peak of the releasing of quercetin and a peak of the releasing of NMN in the controlled-release NMN microsphere 2 is 0.5 h-1.5 h, and a time difference between a peak of the releasing of quercetin and a peak of the releasing of NMN in the controlled-release NMN microsphere 3 is 0 h-1 h.

NAD+ [2] = assay: Increasing the level of NAD+ by controlled-release NMN microspheres 2, 9, 10, blood NAD+ by HPLC (Example 15)
Description: as §1, with “10 mg/kg quercetin at” for “10 mg/kg of quercetin at”, “the controlled-release NMN microspheres 2” for “the controlled-release microspheres 1”, “NMN microspheres 2 containing 100” for “controlled-release microspheres 1 containing 100”, “NMN microspheres 9 containing 100” for “NMN microspheres 2 containing 100”, “NMN microspheres 10 containing 100” for “NMN microspheres 3 containing 100”
Blood was collected from each rat in the groups via the tail vein at time points of 2 h, 2.5 h, 3 h, 3.5 h, 4 h, 4.5 h, 5 h, 5.5 h, and 6 h, respectively, after intragastric administration of corresponding microspheres, and 0.1 mL of blood was collected each time by each rat. After the vein blood collected from each rat in the groups at each time point was treated, the NAD+ level in the blood sample was tested by high performance liquid chromatography (HPLC). The test results of 4 rats in each group were averaged. […] There are time differences between a peak of the releasing of quercetin and a peak of the releasing of NMN in the controlled-release NMN microsphere 2, the controlled-release NMN microsphere 9, and the controlled-release NMN microsphere 10 that are prepared based on different mass ratios of quercetin (the CD38 inhibitor) to the excipient and different mass ratios of NMN to the excipient, and the time differences between a peak of the releasing of quercetin and a peak of the releasing of NMN in the three microspheres are consistent and are all about 0.5-1.5 h.

NAD+ [3] = assay: Increasing the level of NAD+ by controlled-release NMN microspheres 2, 5, 6, blood NAD+ by HPLC (Example 9)
Description: as §1, with “the controlled-release NMN microspheres 2” for “the controlled-release microspheres 1”, “NMN microspheres 2 containing 100” for “controlled-release microspheres 1 containing 100”, “NMN microspheres 5 containing 100” for “NMN microspheres 2 containing 100”, “NMN microspheres 6 containing 100” for “NMN microspheres 3 containing 100”
Blood was collected from the rat in each groups via the tail vein at time points of 2 h, 2.5 h, 3 h, 3.5 h, 4 h, 4.5 h, 5 h, 5.5 h, and 6 h, respectively, after intragastric administration of corresponding microspheres, and 0.1 mL of blood was collected each time by each rat. After the vein blood collected from the rat in each groups at each time point was treated, the NAD+ level in the blood sample was tested by high performance liquid chromatography (HPLC). The test results of 4 rats in each group were averaged. […] There are time differences between a peak of the releasing of quercetin and a peak of the releasing of NMN in the controlled-release NMN microsphere 2, the controlled-release NMN microsphere 5, and the controlled-release NMN microsphere 6 that are prepared based on difference mass ratios of quercetin (the CD38 inhibitor) to NMN, and the time differences between a peak of the releasing of quercetin and a peak of the releasing of NMN in the three microspheres are consistent and are all about 0.5-1.5 h.

Compound	level of NAD+ in the rat compared with the blank group (in words) (NAD+ [1])	NAD+ level in blood (NAD+ [1]; 2 h) [µM]	NAD+ level in blood (NAD+ [1]; 2.5 h) [µM]	NAD+ level in blood (NAD+ [1]; 3 h) [µM]	NAD+ level in blood (NAD+ [1]; 3.5 h) [µM]	NAD+ level in blood (NAD+ [1]; 4 h) [µM]	NAD+ level in blood (NAD+ [1]; 4.5 h) [µM]	NAD+ level in blood (NAD+ [1]; 5 h) [µM]	NAD+ level in blood (NAD+ [1]; 5.5 h) [µM]	NAD+ level in blood (NAD+ [1]; 6 h) [µM]	level of NAD+ in the rat compared with the blank group (in words) (NAD+ [2])	NAD+ level in blood (NAD+ [2]; 2 h) [µM]	NAD+ level in blood (NAD+ [2]; 2.5 h) [µM]	NAD+ level in blood (NAD+ [2]; 3 h) [µM]	NAD+ level in blood (NAD+ [2]; 3.5 h) [µM]	NAD+ level in blood (NAD+ [2]; 4 h) [µM]	NAD+ level in blood (NAD+ [2]; 4.5 h) [µM]	NAD+ level in blood (NAD+ [2]; 5 h) [µM]	NAD+ level in blood (NAD+ [2]; 5.5 h) [µM]	NAD+ level in blood (NAD+ [2]; 6 h) [µM]	further results
O=c1c(O)c(-c2ccc(O)c(O)c2)oc2cc(O)cc(O)c12 [Quercetin, quercetin]	can increase the level of NAD+ in the rat	145	152	178	160	147	150	151	144	149	can increase the level of NAD+ in the rat	121	140	176	158	146	138	141	124	132	level of NAD+ in the rat compared with the blank group (in words) (NAD+ [3]): can increase the level of NAD+ in the rat; NAD+ level in blood (NAD+ [3]; 2 h): 127 µM; NAD+ level in blood (NAD+ [3]; 2.5 h): 146 µM; NAD+ level in blood (NAD+ [3]; 3 h): 180 µM; NAD+ level in blood (NAD+ [3]; 3.5 h): 164 µM; NAD+ level in blood (NAD+ [3]; 4 h): 151 µM; NAD+ level in blood (NAD+ [3]; 4.5 h): 144 µM; NAD+ level in blood (NAD+ [3]; 5 h): 147 µM; NAD+ level in blood (NAD+ [3]; 5.5 h): 130 µM; NAD+ level in blood (NAD+ [3]; 6 h): 137 µM
NC(=O)c1ccc[n+]([C@@H]2O[C@H](COP(=O)([O-])O)[C@@H](O)[C@H]2O)c1 [NMN, nicotinamide mononucleotide]	can increase the level of NAD+ in the rat	139	207	173	159	150	145	148	152	147	can increase the level of NAD+ in the rat	134	193	153	168	142	137	131	138	134	level of NAD+ in the rat compared with the blank group (in words) (NAD+ [3]): can increase the level of NAD+ in the rat; NAD+ level in blood (NAD+ [3]; 2 h): 133 µM; NAD+ level in blood (NAD+ [3]; 2.5 h): 197 µM; NAD+ level in blood (NAD+ [3]; 3 h): 168 µM; NAD+ level in blood (NAD+ [3]; 3.5 h): 159 µM; NAD+ level in blood (NAD+ [3]; 4 h): 143 µM; NAD+ level in blood (NAD+ [3]; 4.5 h): 148 µM; NAD+ level in blood (NAD+ [3]; 5 h): 139 µM; NAD+ level in blood (NAD+ [3]; 5.5 h): 144 µM; NAD+ level in blood (NAD+ [3]; 6 h): 140 µM
